Values quoted from earlier work, collected in patent US20260124184A1, “ONCE DAILY ALDOSTERONE SYNTHASE INHIBITOR (R)-(+)-5-(P-CYANOPHENYL)-5,6,7,8-TETRAHYDROIMIDAZO[L,5-A]PYRIDINE” (priority 2022, published 2026).

Molecular target: aldosterone synthase (Homo sapiens, UniProt P19099)
Conditions: ee of (R) form ≥99%; per WO 2018/078049; cited from earlier work

Sequence of aldosterone synthase (P19099 25-503, species assumed): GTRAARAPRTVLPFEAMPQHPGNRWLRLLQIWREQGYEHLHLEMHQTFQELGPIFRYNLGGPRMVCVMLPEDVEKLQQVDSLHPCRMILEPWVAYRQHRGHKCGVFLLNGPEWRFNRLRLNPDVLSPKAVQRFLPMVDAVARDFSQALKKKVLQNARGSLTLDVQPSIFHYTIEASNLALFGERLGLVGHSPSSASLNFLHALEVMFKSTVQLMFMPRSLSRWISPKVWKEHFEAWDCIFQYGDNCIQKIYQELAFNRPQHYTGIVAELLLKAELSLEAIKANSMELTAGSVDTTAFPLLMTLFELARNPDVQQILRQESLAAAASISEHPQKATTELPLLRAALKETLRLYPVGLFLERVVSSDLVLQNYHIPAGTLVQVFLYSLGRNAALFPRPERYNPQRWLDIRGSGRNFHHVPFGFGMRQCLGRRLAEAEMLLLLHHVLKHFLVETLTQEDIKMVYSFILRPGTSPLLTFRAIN

## N#Cc1ccc([C@H]2CCCc3cncn32)cc1 [(R)-(+)-5-(p-cyanophenyl)-5,6,7,8-tetrahydroimidazo[1,5-a]pyridine]
  aldosterone synthase inhibition, potency: low nanomolar
  aldosterone synthase inhibition, selectivity: selective
